# Measurements taken from ChEMBL document CHEMBL2057178, “Novel synthetic route to the C-nucleoside, 2-deoxy benzamide riboside” (Bioorg Med Chem Lett, 2012).
# Active and inactive are the calls of the source. No cut-off for these calls is given here.
# Tests used:
# Type in all cases: functional, cell-based
# RKO = experiment: Growth inhibition of human RKO cells up to 1 mM relative to DMSO-treated control
# HCT-116 = experiment: Growth inhibition of human HCT116 cells up to 1 mM relative to DMSO-treated control
# DU-145 = experiment: Growth inhibition of human DU145 cells up to 1 mM relative to DMSO-treated control
# PC-3 [1] = experiment: Growth inhibition of human PC3 cells up to 1 mM relative to DMSO-treated control
# NCI-H460 = experiment: Growth inhibition of human H460 cells up to 1 mM relative to DMSO-treated control
# MCF7 [2] = experiment: Growth inhibition of human MCF7 cells up to 1 mM relative to DMSO-treated control
# T47D = experiment: Growth inhibition of human T47D cells up to 1 mM relative to DMSO-treated control
# HT-29 = experiment: Growth inhibition of human HT-29 cells up to 1 mM relative to DMSO-treated control
# PC-3 [3] = experiment: Growth inhibition of human PC3 cells at 500 uM
# MCF7 [4] = experiment: Growth inhibition of human MCF7 cells at 50 uM
structure (smiles),measurement,setting,value
NC(=O)c1cccc([C@H]2C[C@H](O)[C@@H](CO)O2)c1 (racemic),growth inhibition (GI),RKO,inactive
same,growth inhibition (GI),HCT-116,inactive
same,growth inhibition (GI),DU-145,inactive
same,growth inhibition (GI),PC-3 [1],inactive
same,growth inhibition (GI),NCI-H460,inactive
same,growth inhibition (GI),MCF7 [2],inactive
same,growth inhibition (GI),T47D,inactive
same,growth inhibition (GI),HT-29,inactive
NC(=O)c1csc([C@@H]2O[C@H](CO)[C@@H](O)[C@H]2O)n1,growth inhibition (GI),PC-3 [3],Active
NC(=O)c1cccc([C@@H]2O[C@H](CO)[C@@H](O)[C@H]2O)c1,growth inhibition (GI),MCF7 [4],Active
